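Each compound was tested at five concentrations against cells in 96-well plates for 48 hours. Here, GI50 denotes the concentration required for 50% inhibition of growth. Definition used: TGI = concentration required for complete inhibition of growth.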 Residues, ends and D or L forms follow the SMILES beside them. *: point of attachment. Cbz = O=C(OCc1ccccc1)*
What was measured:
Assay in all cases: NCI anticancer screen, dose series, 48 h
[1] = tested on: SN12C renal
[2] = tested on: T-47D breast
[3] = tested on: NCI/ADR-RES ovarian
[4] = tested on: MCF7 breast
[5] = tested on: HOP-92 NSCLC
[6] = tested on: UACC-62 melanoma
[7] = tested on: OVCAR-8 ovarian
[8] = tested on: ACHN renal
[9] = tested on: NCI-H23 lung
[10] = tested on: SF-295 CNS

SMILES | GI50 [1] | TGI [1] | GI50 [2] | TGI [2] | GI50 [3] | TGI [3] | GI50 [4] | TGI [4] | GI50 [5] | TGI [5] | GI50 [6] | TGI [6] | GI50 [7] | TGI [7] | GI50 [8] | TGI [8] | GI50 [9] | TGI [9] | GI50 [10] | TGI [10]
CN(C)CCNC(=O)c1ccc2oc3cc4ccccc4c(=O)n3c2c1 | 46.6 µM | > 100 µM | 34.6 µM | > 100 µM | 37.4 µM | > 100 µM | 64.1 µM | > 100 µM | > 100 µM | > 100 µM | 48.4 µM | > 100 µM | 23.1 µM | 76.2 µM | 15.1 µM | 37.6 µM | 17.4 µM | 57.8 µM | 28 µM | > 100 µM
CC(C)C[C@@H](C=O)NC(=O)[C@H](CC(C)C)NC(=O)[C@H](CC(C)C)NC(=O)OCc1ccccc1 (Cbz-Leu-Leu-Leu-aldehyde) | 0.315 µM | 1.01 µM | 0.222 µM | 0.598 µM | 3.26 µM | > 100 µM | 0.422 µM | 14 µM | 0.319 µM | 0.797 µM | 0.235 µM | 0.548 µM | 0.523 µM | 4.66 µM | 0.357 µM | 1.98 µM | 0.422 µM | 2.99 µM | 0.39 µM | 1.77 µM
N#Cc1c(N/N=C\c2ccc(Cl)cc2)nc(N)nc1N1CCOCC1 | 55.1 µM | > 100 µM | > 100 µM | > 100 µM | 43.1 µM | > 100 µM | 77.3 µM | > 100 µM | 36.3 µM | > 100 µM | 25.4 µM | > 100 µM | 31.4 µM | > 100 µM | 23.1 µM | 92.6 µM | 87.8 µM | > 100 µM | 33.2 µM | > 100 µM
O=[N+]([O-])c1oc2ccc3ccccc3c2c1CCO | – | > 52 µM | – | 73.3 µM | – | 30.1 µM | – | 29.5 µM | – | 35 µM | – | 12.5 µM | – | 23.1 µM | – | 3.68 µM | – | 17 µM | – | 7.04 µM
CC(=O)OCCCC#CC#Cc1cccc(=O)o1 | 19 µM | 39.7 µM | 20 µM | 51.1 µM | 39.6 µM | > 100 µM | 20.3 µM | 43.5 µM | 19.8 µM | 37.8 µM | 14.6 µM | 28.9 µM | 29.4 µM | 86.4 µM | 19.2 µM | 35 µM | 15.8 µM | 33 µM | 17.8 µM | 32.7 µM
COc1ccc(OC)c(/C=C/c2ccnc3ccccc23)c1 | – | 17.6 µM | – | 29.5 µM | – | 1.56 µM | – | 17.4 µM | – | 18.1 µM | – | 7.59 µM | – | 1.88 µM | – | 18.8 µM | – | 5.72 µM | – | 4.89 µM
NC(N)=Nc1ccc(/C=C2\C=Cc3ccccc32)cc1 | 2.95 µM | 13.2 µM | 2.48 µM | 7.39 µM | 4.54 µM | 18.8 µM | 0.523 µM | 2.37 µM | 1.44 µM | 4.6 µM | 2.84 µM | 9.94 µM | 2.22 µM | 5.67 µM | 1.91 µM | 3.56 µM | 2.95 µM | 10.4 µM | 7.28 µM | 24.6 µM
COc1ccc(Cn2cc3c(c2-c2cc(OC)c(OC)c(OC)c2)CCc2c(CO)noc2-3)cc1 | 0.765 µM | 19.2 µM | 0.376 µM | 59.3 µM | 0.294 µM | > 57 µM | 0.176 µM | 17.8 µM | 2.97 µM | 22.2 µM | 0.354 µM | 20.7 µM | 0.417 µM | 19.6 µM | 0.659 µM | 45 µM | 0.612 µM | 42.1 µM | 0.225 µM | 15.2 µM
COc1cc(/C=C/C(=O)c2c(-c3ccc(F)cc3)nc3sc(C)nn23)cc(OC)c1OC | 2.48 µM | 8.65 µM | 2.09 µM | 7.57 µM | 2.57 µM | 9.91 µM | 3.03 µM | 16.5 µM | 1.6 µM | 8.64 µM | 1.94 µM | 4.44 µM | 2.48 µM | 12.9 µM | 1.93 µM | 4.6 µM | 2.98 µM | 9.55 µM | 4.03 µM | 15.9 µM
O=S(=O)(NCCCNc1cc(-c2cn(-c3ccccc3)nc2-c2cccc(O)c2)ccn1)c1ccc(Br)cc1 | 2.75 µM | 9.8 µM | 1.76 µM | 6.38 µM | 2.33 µM | 8.19 µM | 1.76 µM | 5.16 µM | 1.83 µM | 7.55 µM | 1.57 µM | 3.59 µM | 2.45 µM | 9.29 µM | 2.97 µM | 15.4 µM | 2.19 µM | 12.1 µM | 1.36 µM | 3.09 µM
CC/C=C\C[C@H](O)C/C=C1/C(=O)C=C[C@@H]1C/C=C\CCCCO | 2.52 µM | 6.53 µM | 2.63 µM | 11.1 µM | 3.35 µM | 38.4 µM | 0.544 µM | 10.6 µM | 11.7 µM | 25 µM | 1.87 µM | 5.46 µM | 3.24 µM | 11.9 µM | 1.8 µM | 3.66 µM | 2.26 µM | 5.95 µM | 2.39 µM | 6.34 µM
Cc1ccccc1C(C(=O)NC1CCCCC1)N(C(=O)CNc1ncccc1F)c1cccc(F)c1 (stereo not given) | > 79.9 µM | > 100 µM | 60.8 µM | > 100 µM | > 100 µM | > 100 µM | > 100 µM | > 100 µM | 13.9 µM | 62.4 µM | > 75.4 µM | > 100 µM | 19 µM | > 100 µM | 49.8 µM | > 100 µM | > 57.8 µM | > 100 µM | 20.6 µM | > 76.8 µM
Oc1ccccc1/C=N\NC(=S)N/N=C/c1ccccc1O | 3.09 µM | 79.5 µM | 3.19 µM | 54.5 µM | 0.543 µM | > 100 µM | 2.38 µM | 40.3 µM | 10.3 µM | 64.5 µM | 1.23 µM | 7.56 µM | 2.34 µM | 51.1 µM | 1.77 µM | > 100 µM | 3.91 µM | > 100 µM | 0.249 µM | 0.987 µM
O=C(O)c1cn(C2CC2)c2cc(N3CCN(Cc4c(O)ccc5ccccc45)CC3)c(F)cc2c1=O | 5.38 µM | > 100 µM | > 100 µM | > 100 µM | 11.4 µM | > 100 µM | 5.63 µM | > 100 µM | 2.46 µM | 8.88 µM | 13.5 µM | > 100 µM | 4.61 µM | > 100 µM | 29.6 µM | > 100 µM | 4.63 µM | > 100 µM | 8.22 µM | > 100 µM
O=C1CC(N2C(=O)/C(=C/C(Cl)=C\c3ccc([N+](=O)[O-])cc3)SC2=S)C(=O)N1c1ccc(O)cc1 (stereo not given) | 1.6 µM | 5.88 µM | 2.45 µM | 15.8 µM | 2.13 µM | 12.1 µM | 1.21 µM | 10.7 µM | 1.62 µM | 3.72 µM | 1.67 µM | 3.38 µM | 2.16 µM | 14.2 µM | 1.36 µM | 2.76 µM | 1.56 µM | 3.52 µM | 1.31 µM | 2.7 µM
COc1cc(C2CC(=O)Nc3c2c(C)nn3-c2nc3ccccc3[nH]2)cc(OC)c1O (stereo not given) | 3.98 µM | > 72.3 µM | 3.45 µM | 16.9 µM | 7.81 µM | > 78.2 µM | 3.13 µM | > 100 µM | 2.8 µM | 8.81 µM | 2.06 µM | 4.9 µM | 3.4 µM | > 32.1 µM | 3.11 µM | > 28.6 µM | 3.15 µM | 11.2 µM | 1.33 µM | 3.71 µM
COc1ccc(-c2cn(-c3cc(OC)c(OC)c(OC)c3)c(=O)[nH]2)cc1OC | > 100 µM | > 100 µM | > 100 µM | > 100 µM | > 100 µM | > 100 µM | > 100 µM | > 100 µM | > 100 µM | > 100 µM | > 100 µM | > 100 µM | > 100 µM | > 100 µM | > 100 µM | > 100 µM | > 100 µM | > 100 µM | > 100 µM | > 100 µM

Source: PubChem BioAssay (NCI)
